# According to US20130172273A1, “CYCLOTETRAPEPTIDES WITH PRO-ANGIOGENIC PROPERTIES” (GENETADI BIOTECH, S.L., priority 2010, published 2013):
# Experiments:
# [1] = system: 17 angiogenic and adhesion-related genes in HUVEC cells; experiment: Gene regulation assay (whole human gene-expression microarray); format: cell-based; details: 10^−5M, 48 hours, FIG. 2
# Experimental: HUVEC cells were maintained in CS—C Complete Medium, grown at 50 percent of confluency and then treated with 1.00E-05 M final concentration of the peptide compounds during 48 hours.
# Total RNA was extracted from untreated control or RGD-compounds treated cells using TRIzol (Invitrogen) according to standard protocol. RNA was further purified with RNeasy Mini Kit (Qiagen) and the concentration and quality was assessed by NanoDrop spectrophotometer and Agilent 2100 Bioanalyzer, respectively. Only RNA Samples with a RIN number between […]were used in the microarray assays.
# In order to study the intracellular effect of all RGD-binding compounds, a cell-culture whole gene-expression assay was performed. HUVEC cells were treated separately with a 10^−5M concentration of the test compounds during 48 hours. The simultaneous analysis of all human gene-expression by microarray let us identify which human gene(s) are induced, inhibited or un-affected after the test compounds were bound to the receptors of the cells.
# Whole human gene expression microarray analysis was performed using Agilent Technologies (Santa Clara, Calif.). This platform comprises a two-color design with two RNA samples labelled with either Cy3 or Cy5 and hybridized to the same 44K Agilent microarray. Each array contains about 41,000 unique noncontrol 60-mer probes. RNAs from untreated and peptide treated-HUVEC cells were two-color labelled and hybridized to randomly chosen arrays a total of four times. A dye swap was performed for each sample on a different slide to remove any bias from the labelling dyes.
# For each sample, 800 ng total RNA was reverse transcribed, linear amplified, and labelled with either Cy3 or Cy5 using Agilent's Low RNA Input Linear Amplification Kit PLUS, according to manufacturer's instructions. After labelling, samples were measured on a Nanodrop microarray module for labelling efficiency and quantification. Samples were then hybridized on Agilent 4×44K whole human genome GE arrays at 65° C. for 17 h. After washing in GE washing buffer, the slide was scanned with Agilent Microarray Scanner. Feature extraction software (Version 9.5.3) was used to convert the image into gene expression data. Data were normalized by the Linear Lowess method. Genes that were 1.5-fold differentially expressed on 3 of 4 arrays were scored as significant. Furthermore, only genes with a p-value≦0.05 based on a Student's t-test were selected. Mean fold change is mean of 4 arrays. Angiogenic-related genes were classified according to Gene Ontology.
# αvβ3 integrin = αvβ3 integrin (Homo sapiens, UniProt P05106+P06756); details: J. Med. Chem. 2010, vol. 53(1), pp. 106-118; cited from earlier work
# αvβ3 integrin, sequence (P06756 31-889 limits assumed): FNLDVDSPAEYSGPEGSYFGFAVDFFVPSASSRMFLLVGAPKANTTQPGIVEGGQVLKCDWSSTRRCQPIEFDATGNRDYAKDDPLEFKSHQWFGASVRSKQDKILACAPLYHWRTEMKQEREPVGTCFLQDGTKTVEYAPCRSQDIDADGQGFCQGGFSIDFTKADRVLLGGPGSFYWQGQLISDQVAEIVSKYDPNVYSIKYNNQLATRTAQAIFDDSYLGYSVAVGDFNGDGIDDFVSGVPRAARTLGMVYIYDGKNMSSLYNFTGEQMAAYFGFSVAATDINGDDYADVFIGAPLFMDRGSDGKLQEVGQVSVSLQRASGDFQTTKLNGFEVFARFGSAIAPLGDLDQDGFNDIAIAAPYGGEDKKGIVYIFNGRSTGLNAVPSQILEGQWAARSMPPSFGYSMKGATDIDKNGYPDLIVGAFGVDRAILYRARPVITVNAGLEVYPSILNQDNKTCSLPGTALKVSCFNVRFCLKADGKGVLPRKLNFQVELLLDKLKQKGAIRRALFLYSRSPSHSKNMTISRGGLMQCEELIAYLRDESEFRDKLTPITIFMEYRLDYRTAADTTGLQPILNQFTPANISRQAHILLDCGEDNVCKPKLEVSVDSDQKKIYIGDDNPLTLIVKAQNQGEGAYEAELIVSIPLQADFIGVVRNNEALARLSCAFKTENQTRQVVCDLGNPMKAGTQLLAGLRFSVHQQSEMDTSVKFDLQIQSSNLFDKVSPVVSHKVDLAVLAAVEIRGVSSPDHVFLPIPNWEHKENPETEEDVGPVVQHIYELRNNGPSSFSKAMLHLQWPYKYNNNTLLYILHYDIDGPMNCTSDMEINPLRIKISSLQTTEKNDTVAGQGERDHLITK
# αvβ3 integrin, sequence (P06756 891-1048 limits assumed): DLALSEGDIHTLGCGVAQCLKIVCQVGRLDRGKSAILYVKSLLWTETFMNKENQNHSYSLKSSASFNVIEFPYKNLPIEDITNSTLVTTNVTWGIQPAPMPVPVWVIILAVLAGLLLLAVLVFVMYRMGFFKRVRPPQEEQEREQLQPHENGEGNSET
# αvβ3 integrin, sequence (P05106 27-788): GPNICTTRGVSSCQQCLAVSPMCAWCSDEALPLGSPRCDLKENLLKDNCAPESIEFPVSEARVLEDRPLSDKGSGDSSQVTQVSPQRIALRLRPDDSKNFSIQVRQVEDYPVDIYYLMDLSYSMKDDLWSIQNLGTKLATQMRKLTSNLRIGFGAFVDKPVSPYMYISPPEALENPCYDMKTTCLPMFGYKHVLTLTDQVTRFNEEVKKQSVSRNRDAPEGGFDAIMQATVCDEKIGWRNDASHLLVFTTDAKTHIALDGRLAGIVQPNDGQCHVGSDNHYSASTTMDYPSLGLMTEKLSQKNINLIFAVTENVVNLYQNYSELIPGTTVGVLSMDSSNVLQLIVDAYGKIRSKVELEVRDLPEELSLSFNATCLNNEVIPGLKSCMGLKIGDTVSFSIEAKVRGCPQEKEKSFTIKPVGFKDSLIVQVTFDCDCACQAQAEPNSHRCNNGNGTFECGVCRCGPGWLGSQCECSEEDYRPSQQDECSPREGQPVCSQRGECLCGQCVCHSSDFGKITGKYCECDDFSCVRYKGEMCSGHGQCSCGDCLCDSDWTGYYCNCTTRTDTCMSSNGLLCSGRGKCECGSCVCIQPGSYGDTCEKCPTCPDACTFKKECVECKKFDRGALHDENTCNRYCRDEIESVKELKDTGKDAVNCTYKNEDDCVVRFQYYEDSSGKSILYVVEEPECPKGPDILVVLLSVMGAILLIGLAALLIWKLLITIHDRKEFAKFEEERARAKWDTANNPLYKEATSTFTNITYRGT
# [2] = system: αvβ3 integrin over-expressed human umbilical vein endothelial cells (HUVEC); experiment: Endothelial cell adhesion assay (adhesion inhibition on a vitronectin surface); format: cell-based; details: HUVEC on vitronectin-coated plate, 1 h at 37° C.; FIG. 1
# Experimental: Human umbilical endothelial cell (HUVEC) was purchased from Cambrex BioScience (USA). Cells were grown on the 0.5% gelatin coated plate in CS—C Complete Medium (Sigma) and were used for experiments after three passages. DLD-1, human colon cancer cell line was purchased from LGC/ATCC (Cat. Number CCL-221), and maintained in RPMI 1640 (Sigma) supplemented with 10% FBS (Sigma). Human vitronectin was from Sigma. Peptides to be assayed were dissolved in double-distilled water at a concentration of 10 mg/ml and stored in the dark at −80°.
# HUVEC cells were grown to subconfluent state and then harvested by 0.025% trypsin/EDTA (Sigma) in one minute. Cells were preincubated with various concentrations of peptides on ice for 15 min in CS—C Medium. Same volume of vehicle was added to cells as a control. Peptide-treated cells (5×10^4 cells/100 μl/well) were plated onto a 96-well microplate which was precoated with vitronectin ([…] in PBS), and incubated for 1 h at 37° C., 5% CO^2/95% air to allow cell attachment. Cells were washed gently with PBS for three times to remove detached cells. Number of adherent cells was measured by Fluorescent Cell counting Kit (FCCK) at 535 nm (excitation at 485 nm) using a fluorescent plate reader (Bioscan). […]
# Data are expressed as the means±standard error of mean (SEM). Statistical differences among treatment groups were assessed by analysis of variance (ANOVA). […]
# [3] = of 17 angiogenic and adhesion-related genes
compound,measurement,setting,value
"CC(C)[C@H]1C(=O)N[C@@H](CCCN=C(N)N)C(=O)NCC(=O)N[C@@H](CC(=O)O)C(=O)N[C@H](Cc2ccccc2)C(=O)N1C [cilengitide, cyclo(Arg-Gly-Asp-(D)Phe-N(Me)Val)]",genes activated after treatment,[1]; [3],10 genes
same,genes blocked after treatment,[1]; [3],7 genes
N=C(N)NCCC[C@@H]1NC(=O)CN2C(=O)C(NC(=O)[C@H](CC(=O)O)NC(=O)CNC1=O)[C@H]2[C@H](O)CO (stereo partly shown) [compound 1],pattern of gene-expression conserved relative to cilengitide,[1]; of 17 genes,15/17
CC1(C)C(=O)N[C@@H](CCCNC(=N)N)C(=O)NCC(=O)N[C@@H](CC(=O)O)C(=O)NC2(Cc3ccccc3)CN1C2=O (stereo partly shown) [compound 2],pattern of gene-expression conserved relative to cilengitide,[1]; of 17 genes,14 of 17
c[(R)-βPheψ(NHCO)Aspψ(NHCO)Gly-Arg],inhibiting the αvβ3 integrin-mediated cell adhesion,αvβ3 integrin,good activity
cyclo-[Asp-(beta-Lactam)-Arg [Example 24],adhesion inhibition (% of cell adhesion vs. concentration),[2],comparable adhesion inhibition as cilengitide and the RGD-cyclopentapeptides
same,pattern of gene-expression almost opposite (activation vs inhibition) compared with cilengitide,[1]; of 17 genes,15 of 17
